Data taken from US20240207292A1, “BORONIC ACID COMPOUNDS, COMPOSITIONS AND METHODS” (Trustees of Tufts College, priority 2021, published 2024).
pIC50: −log10 of the molar value. “And” between values parts separate entries of the source, which are not always exact repeats. Identical values can stand only once. Like-named read-outs stand apart in the source and are kept apart here. Square brackets hold non-standard residues; d marks the D form. Peptide text beside a SMILES is read from it. * marks the point of attachment. X3 = O=C1CN2CCN3CC(=O)O[C]4(C3)CN(CC(=O)*)CCN3CC(=O)O[C](C2)(C3)[Lu]4[O]1; X4 = O=C1CN2CCN3CC(=O)O[C]4(C3)CN(CC(=O)*)CCN3CC(=O)O[C](C2)(C3)[Ga]4[O]1; DOTAGA = O=C(O)CN1CCN(CC(=O)O)CCN(C(CCC(=O)*)C(=O)O)CCN(CC(=O)O)CC1; X5 = O=C(O)CN1CCN(CC(=O)O)CCN([C@H](CCC(=O)*)C(=O)O)CCN(CC(=O)O)CC1; DOTA = O=C(O)CN1CCN(CC(=O)O)CCN(CC(=O)*)CCN(CC(=O)O)CC1; X2 = O=C(O)CN1CCCN(CC(=O)O)CCN(CC(=O)*)CCCN(CC(=O)O)CC1; Pyrrolidine(2S-CN,4,4-F2) = N#C[C@@H]1CC(F)(F)CN1*; boroPro = OB(O)[C@@H]1CCCN1*

Tests used:
Format in all cases: biochemical
recombinant human FAP = recombinant human FAP (Homo sapiens (Human), UniProt Q12884); assay: In vitro enzyme IC50 assay, FAP (Example 16); details: 10 min preincubation at 25° C.; Z-Gly-Pro-AMC
Description: Biological Materials: For the in vitro IC50 determination assays, recombinant human DPPIV, DPP9, FAP, and PREP were purchased from R&D Systems, and DPP8 was from Biomol International. Buffer systems used were A (25 mM Tris, pH 8.0), B (50 mM Tris, pH 7.5), C (50 mM Tris, 140 mM NaCl, pH 7.5), D (25 mM Tris, 250 mM NaCl, pH 7.5), and E (20 mM Tris, 20 mM KCl, pH 7.4). […] Substrate Specificity Assay. Peptide libraries (0.21 mM) were incubated for 24 h with 1 nM FAP in buffer E at 37° C. The reaction was quenched by the addition of 1.2 N HCl. The samples were analyzed by reverse-phase HPLC-MS on a Thermo Finnigan LCQ Duo, quantifying the peaks in the resulting base peak chromatograms. Relative cleavage values were determined by comparing the postquench abundance of intact peptides to those in the initial library.
In Vitro Enzyme IC50 Assays. Enzymatic activity of DPPIV, DPP8, DPP9, FAP, and PREP was measured at 25° C. on a Molecular Devices M2e multidetection microtiter plate reader, monitoring the fluorescence at an excitation wavelength of 380 nm and an emission wavelength of 460 nm. The substrate was either H-Gly-Pro-AMC for the DPPIV, DPP8, and DPP9 assays or Z-Gly-Pro-AMC for the FAP and PREP assays. […] The final enzyme concentrations were 0.1, 0.8, 0.4, 1.2, and 0.6 nM for DPPIV, DPP8, DPP9, FAP, and PREP, respectively. […] Those prepared in pH 2.0 solution were preincubated at 25° C. for 4 h prior to dilution. Immediately prior to the commencement of the experiment, the 100 mM stocks were further diluted to 10^-3 M in the appropriate assay buffer, from which 1:10 serial dilutions were prepared. All inhibitors were tested in triplicate.

[1] = target: recombinant human prolyl oligopeptidase (PREP) (Homo sapiens (Human), UniProt P48147); assay: In vitro assay prolyl oligopeptidase IC50 (Example 21)
Description: (§1) The purpose of this assay is to determine the IC50 of various inhibitors against recombinant human dipeptidyl peptidase IV (DPPIV), fibroblast activation protein (FAP) or prolyl oligopeptidase (PREP).
(§2) The assays are conducted in the following steps: • 1 Dissolve the compound in DMSO to a final concentration of 100 mM. From this, prepare a 1 mM stock at pH 7.5 in 50 mM Tris, 140 mM NaCl Buffer (FAP)/pH 7.5 in 25 mM Tris, 250 mM NaCl Buffer/[…]. • 2. Serial dilute (1:10) the 1 mM compound stocks prepared previously into the appropriate assay buffer (FAP: 50 mM Tris, 140 mM NaCl, pH 7.5/PREP: 25 mM Tris, 0.25 M NaCl, pH 7.5/DPPIV: 25 mM Tris, pH 8.0) to one row of a 96-well plate. • 3. […] Dilute the enzymes into their appropriate assay buffers. The final enzyme concentrations should be 0.1, 1.2, and 0.6 nM for DPPIV, FAP and PREP respectively. Add 180 μL to each well needed in columns 2-10. Column 1(A,B,C) should be prepared with 200 μl of appropriate assay buffer as control. Column 1(D,E,F,G,H) should be prepared with 20 μl of appropriate assay buffer and 180 ul enzyme as no inhibitor control. • 5. Add 20 μL of the compound of interest from the dilution plate prepared in step 2 to columns 2-10 of the assay plate where appropriate. Each sample should be tested in triplicate. Allow this to incubate for 10 minutes at room temperature, shaking the plate for the first two minutes. • 6. Add 10 μL of 20× substrate prepared in step 3 to each well and allow this to incubate for 15 minutes at room temperature, shaking the plate for the first two minutes. • 7. Read the fluorescence at λex: 380, λem: 460. (DPcore=[dAla|dSer|Gly]-[boroPro|Pro-nitrile], XXaa=alpha-amino acid)

[2] = target: recombinant human fibroblast activation protein (FAP) (Homo sapiens (Human), UniProt Q12884); assay: In vitro assay fibroblast activation protein IC50 (Example 21)
Description: as §1, §2

[3] = target: recombinant human dipeptidyl peptidase IV (DPPIV) (Homo sapiens (Human), UniProt P27487); assay: In vitro assay dipeptidyl peptidase IV IC50 (Example 21)
Description: as §1, §2

Chain of recombinant human prolyl oligopeptidase (PREP) (P48147 whole entry): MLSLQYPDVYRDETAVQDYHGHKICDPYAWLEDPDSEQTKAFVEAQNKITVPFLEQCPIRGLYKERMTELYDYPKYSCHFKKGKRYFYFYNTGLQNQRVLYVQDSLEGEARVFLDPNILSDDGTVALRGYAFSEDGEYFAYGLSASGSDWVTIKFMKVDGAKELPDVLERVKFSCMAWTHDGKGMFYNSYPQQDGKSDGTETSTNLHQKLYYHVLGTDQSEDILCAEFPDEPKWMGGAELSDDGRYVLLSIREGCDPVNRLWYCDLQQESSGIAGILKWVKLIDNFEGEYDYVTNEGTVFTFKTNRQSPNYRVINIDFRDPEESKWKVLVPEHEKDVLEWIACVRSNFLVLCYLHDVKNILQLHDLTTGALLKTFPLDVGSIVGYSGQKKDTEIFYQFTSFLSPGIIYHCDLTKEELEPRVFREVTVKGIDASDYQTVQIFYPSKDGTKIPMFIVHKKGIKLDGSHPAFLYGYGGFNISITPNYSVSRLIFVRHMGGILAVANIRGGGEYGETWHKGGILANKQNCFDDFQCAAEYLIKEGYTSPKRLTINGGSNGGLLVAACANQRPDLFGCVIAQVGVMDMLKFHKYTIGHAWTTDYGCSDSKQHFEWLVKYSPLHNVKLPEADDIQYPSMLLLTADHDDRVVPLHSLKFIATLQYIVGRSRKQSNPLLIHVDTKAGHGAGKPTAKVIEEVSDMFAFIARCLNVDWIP
Chain of recombinant human dipeptidyl peptidase IV (DPPIV) (P27487 whole entry): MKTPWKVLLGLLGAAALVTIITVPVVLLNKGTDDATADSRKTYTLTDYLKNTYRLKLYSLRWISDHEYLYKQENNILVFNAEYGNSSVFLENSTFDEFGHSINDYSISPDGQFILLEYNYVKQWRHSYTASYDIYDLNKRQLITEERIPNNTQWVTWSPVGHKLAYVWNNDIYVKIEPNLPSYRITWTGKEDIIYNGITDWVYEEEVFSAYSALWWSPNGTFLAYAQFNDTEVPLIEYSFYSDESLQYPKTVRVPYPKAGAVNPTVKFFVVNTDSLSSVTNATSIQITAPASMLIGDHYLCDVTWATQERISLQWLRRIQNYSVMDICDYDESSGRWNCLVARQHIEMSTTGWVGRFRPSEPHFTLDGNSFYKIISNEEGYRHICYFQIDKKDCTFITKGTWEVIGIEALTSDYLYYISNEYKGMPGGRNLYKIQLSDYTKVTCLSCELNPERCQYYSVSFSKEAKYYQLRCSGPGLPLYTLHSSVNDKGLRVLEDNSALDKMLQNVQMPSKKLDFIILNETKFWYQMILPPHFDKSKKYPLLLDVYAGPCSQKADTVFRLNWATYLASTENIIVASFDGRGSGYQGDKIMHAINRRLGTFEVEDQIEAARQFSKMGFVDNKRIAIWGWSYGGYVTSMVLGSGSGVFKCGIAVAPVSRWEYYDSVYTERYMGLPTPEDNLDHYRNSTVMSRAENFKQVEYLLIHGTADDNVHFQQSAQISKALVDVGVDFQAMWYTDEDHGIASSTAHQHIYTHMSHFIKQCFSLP
Chain of recombinant human fibroblast activation protein (FAP) (Q12884 whole entry): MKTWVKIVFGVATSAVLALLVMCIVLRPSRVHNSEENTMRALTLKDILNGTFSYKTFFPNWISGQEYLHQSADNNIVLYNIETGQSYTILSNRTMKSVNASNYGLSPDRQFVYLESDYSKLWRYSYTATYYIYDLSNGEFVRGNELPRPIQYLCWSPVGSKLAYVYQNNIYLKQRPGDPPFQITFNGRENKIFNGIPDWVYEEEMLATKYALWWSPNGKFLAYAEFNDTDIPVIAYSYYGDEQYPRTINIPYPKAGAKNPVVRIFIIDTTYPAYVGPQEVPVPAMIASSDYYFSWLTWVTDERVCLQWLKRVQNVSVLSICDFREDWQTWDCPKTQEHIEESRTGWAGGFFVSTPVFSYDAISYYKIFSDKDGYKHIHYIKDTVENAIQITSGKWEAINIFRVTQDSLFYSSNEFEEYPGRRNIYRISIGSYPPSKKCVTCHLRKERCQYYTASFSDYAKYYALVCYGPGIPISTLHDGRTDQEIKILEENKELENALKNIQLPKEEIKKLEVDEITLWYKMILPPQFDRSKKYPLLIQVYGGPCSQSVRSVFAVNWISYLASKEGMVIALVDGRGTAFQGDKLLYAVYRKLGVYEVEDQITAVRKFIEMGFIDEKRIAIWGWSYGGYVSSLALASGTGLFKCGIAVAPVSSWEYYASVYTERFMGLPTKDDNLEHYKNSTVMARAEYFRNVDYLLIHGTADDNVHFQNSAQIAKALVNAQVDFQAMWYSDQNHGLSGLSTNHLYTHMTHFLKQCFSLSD
Chain of recombinant human FAP (Q12884 whole entry): as above

SMILES	pIC50 ([1]; Z-Gly-Pro-AMC, 0.6 nM enzyme)	pIC50 ([2]; Z-Gly-Pro-AMC, 1.2 nM enzyme)	pIC50 [1]	pIC50 [2]	other results
C[C@@H](NC(=O)c1ccc(NNC(=O)CCCCCNC(=O)CN2CCN(CC(=O)O)CCN(CC(=O)O)CCN(CC(=O)O)CC2)cc1)C(=O)N1CCC[C@H]1B(O)O [6486S, DOTA-EACA-HyBz-D-Ala-boroPro]					pIC50 (recombinant human FAP): 8.77
C[C@@H](NC(=O)[C@H]1CC[C@H](CNC(=O)CN2CCN3CCN4CCN(CC2)CC(=O)[O][Ga]([O]C(=O)C3)[O]C(=O)C4)CC1)C(=O)N1CCC[C@H]1B(O)O [6952 GA]	4.30	7.06			pIC50 ([3]; Gly-Pro-AMC, 0.1 nM enzyme): 4.10
C[C@@H](NC(=O)c1ccc(NNC(=O)CCCNC(=O)CN2CCN(CC(=O)O)CCN(CC(=O)O)CCN(CC(=O)O)CC2)cc1)C(=O)N1CCC[C@H]1B(O)O [6489S, DOTA-GABA-HyBz-D-Ala-boroPro]					pIC50 (recombinant human FAP): 9.10
CC(C)[C@H](NC(=O)CNC(=O)CNC(=O)CN1CCN2CC(=O)O[C]3(CN4CCN5CC(=O)O[C](C1)(C5)[Ga]3[O]C(=O)C4)C2)C(=O)N[C@H](C)C(=O)N1CCC[C@H]1B(O)O (some centres unmarked) [6522GA-02] (X4-GGV[dA]-boroPro)	4.72	6.24			pIC50 ([3]; Gly-Pro-AMC, 0.1 nM enzyme): < 4.00
CC(C)[C@H](NC(=O)CNC(=O)CC[C@H](C(=O)O)N1CCN(CC(=O)O)CCN(CC(=O)O)CCN(CC(=O)O)CC1)C(=O)N[C@H](C)C(=O)N1CCC[C@H]1B(O)O [6795D]	5.13	7.77			pIC50 ([3]; Gly-Pro-AMC, 0.1 nM enzyme): < 4.00
C[C@@H](NC(=O)c1ccc(NNC(=O)CNC(=O)CN2CCN3CCN4CCN(CC2)CC(=O)[O][Ga]([O]C(=O)C3)[O]C(=O)C4)cc1)C(=O)N1CCC[C@H]1B(O)O [6487GA]			5.92	7.68	
C[C@@H](NC(=O)c1ccc(NNC(=O)CN2CCN(CC(=O)O)CCN(CC(=O)O)CCN(CC(=O)O)CC2)nc1)C(=O)N1CCC[C@H]1B(O)O [compound 4536]			7.30	8.05	pIC50 [3]: 4.08
C[C@@H](NC(=O)c1ccc(NN)nc1)C(=O)N1CCC[C@H]1B(O)O [compound 3860]			5.01	6.77	pIC50 [3]: < 4.00
C[C@@H](NC(=O)[C@H]1CC[C@H](CNC(=O)CN2CCN3CCN4CCN(CC2)CC(=O)[O][Lu]([O]C(=O)C3)[O]C(=O)C4)CC1)C(=O)N1CCC[C@H]1B(O)O [6952 LU]	4.68	7.85			pIC50 ([3]; Gly-Pro-AMC, 0.1 nM enzyme): < 4.00
CC(C)[C@H](NC(=O)CNC(=O)CNC(=O)CN1CCN2CC(=O)O[C]3(CN4CCN5CC(=O)O[C](C1)(C5)[Lu]3[O]C(=O)C4)C2)C(=O)N[C@H](C)C(=O)N1CCC[C@H]1B(O)O (some centres unmarked) [6522LU] (X3-GGV[dA]-boroPro)	4.72	7.59			pIC50 ([3]; Gly-Pro-AMC, 0.1 nM enzyme): < 4.00
C[C@@H](NC(=O)c1ccc(NNC(=O)CCCCCNC(=O)CN2CCN3CCN4CCN(CC2)CC(=O)[O][Lu]([CH2]C(=O)C3)[O]C(=O)C4)nc1)C(=O)N1CCC[C@H]1B(O)O [6958LU]			6.81	8.96	
C[C@@H](NC(=O)c1ccc(CNC(=O)CN2CCN3CCN4CCN(CC2)CC(=O)[O][Lu]([O]C(=O)C3)[O]C(=O)C4)nc1)C(=O)N1CCC[C@H]1B(O)O [6556LU]			6.05	8.54	
CC(C)[C@H](NC(=O)CNC(=O)CNC(=O)CNC(=O)CC[C@H](C(=O)O)N1CCN(CC(=O)O)CCN(CC(=O)O)CCN(CC(=O)O)CC1)C(=O)N[C@H](C)C(=O)N1CCC[C@H]1B(O)O [6808D] (X5-GGGV[dA]-boroPro)	4.96	7.94			
C[C@@H](NC(=O)c1ccc(NNC(=O)CCCCCNC(=O)CN2CCN3CCN4CCN(CC2)CC(=O)[O][Ga]([O]OC(=O)C3)[O]C(=O)C4)cc1)C(=O)N1CCC[C@H]1B(O)O [6486 GA]			5.33	7.09	pIC50 [3]: < 4.00
CC(C)[C@H](NC(=O)CNC(=O)CC[C@@H]1C(=O)[O][Lu]23[O]C(=O)CN4CCN(CCN1CCN(CC4)CC(=O)[O]2)CC(=O)[O]3)C(=O)N[C@H](C)C(=O)N1CCC[C@H]1B(O)O [6795DLU]	5.00	7.22			pIC50 ([3]; Gly-Pro-AMC, 0.1 nM enzyme): < 4.00
C[C@@H](NC(=O)c1ccc(NNC(=O)CN2CCN3CCN4CCN(CC2)CC(=O)[O][Gd]([O]C(=O)C3)[O]C(=O)C4)nc1)C(=O)N1CCC[C@H]1B(O)O [4536GD]			< 4.00	6.35	pIC50 [3]: < 4.00
C[C@@H](NC(=O)c1ccc(NNC(=O)CCCCC[N+]2=C(/C=C/C3=C(Oc4ccc(S(=O)(=O)O)cc4)C(=C/C=C4/N(CCCCS(=O)(=O)O)c5ccc(S(=O)(=O)O)cc5C4(C)C)/CCC3)C(C)(C)c3cc(S(=O)(=O)O)ccc32)nc1)C(=O)N1CCC[C@H]1B(O)O [4613 B]			6.41	8.06 and 8.00	pIC50 [3]: < 4.00
C[C@@H](NC(=O)CN1CCN2CC(=O)O[C]3(CN4CCN5CC(=O)O[C](C1)(C5)[Gd]3[O]C(=O)C4)C2)C(=O)N1CCC[C@H]1B(O)O (some centres unmarked) [4535GD]	< 5.00	6.12			
CC(C)[C@H](NC(=O)CNC(=O)CNC(=O)CCC(C(=O)O)N1CCN(CC(=O)O)CCN(CC(=O)O)CCN(CC(=O)O)CC1)C(=O)N[C@H](C)C(=O)N1CCC[C@H]1B(O)O (some centres unmarked) [compound 6794] ({DOTAGA}-GGV[dA]-boroPro)	4.76	7.48			
CC(C)[C@H](NC(=O)CNC(=O)CNC(=O)CN1CCN(CC(=O)O)CCN(CC(=O)O)CCN(CC(=O)O)CC1)C(=O)N[C@H](C)C(=O)N1CC(F)(F)C[C@H]1C#N [compound 6790] ({DOTA}-GGV[dA]-{Pyrrolidine(2S-CN,4,4-F2)})	3.80	6.97			
CC(C)[C@H](NC(=O)CNC(=O)CNC(=O)CN1CCCN(CC(=O)O)CCN(CC(=O)O)CCCN(CC(=O)O)CC1)C(=O)N[C@@H](C)C(=O)N1CCC[C@H]1B(O)O [6522L] (X2-GGVA-boroPro)	8.12	< 4.00			pIC50 ([3]; Gly-Pro-AMC, 0.1 nM enzyme): 5.47
C[C@@H](NC(=O)c1ccc(NC(=O)CN2CCN3CCN4CCN(CC2)CC(=O)[O][Lu]([O]C(=O)C3)[O]C(=O)C4)cc1)C(=O)N1CCC[C@H]1B(O)O [6572LU]			6.05	8.02	
C[C@@H](NC(=O)c1ccc(NC(=O)CN2CCN3CCN4CCN(CC2)CC(=O)[O][Ga]([O]C(=O)C3)[O]C(=O)C4)cc1)C(=O)N1CCC[C@H]1B(O)O [6572GA]			6.63	7.60	
C[C@@H](NC(=O)c1ccc(NNC(=O)CCCNC(=O)CN2CCN3CCN4CCN(CC2)CC(=O)[O][Ga]([O]C(=O)C3)[O]C(=O)C4)nc1)C(=O)N1CCC[C@H]1B(O)O [6489 GA]			5.47	7.41	pIC50 [3]: < 4.00
C[C@@H](NC(=O)c1ccc(CNC(=O)CCCNC(=O)CN2CCN(CC(=O)O)CCN(CC(=O)O)CCN(CC(=O)O)CC2)cc1)C(=O)N1CCC[C@H]1B(O)O [compound 6591]			6.99	9.44	
C[C@@H](NC(=O)c1ccc(NNC(=O)CCCCC[N+]2=C(/C=C/C3=C(Oc4ccc(S(=O)(=O)O)cc4)C(=C/C=C4/N(CCCCS(=O)(=O)O)c5ccc(S(=O)(=O)O)cc5C4(C)C)/CCC3)C(C)(C)c3cc(S(=O)(=O)O)ccc32)cc1)C(=O)N1CCC[C@H]1B(O)O [4613 C]			6.21	8.77	
C[C@@H](NC(=O)CN1CCN(CC(=O)O)CCN(CC(=O)O)CCN(CC(=O)O)CC1)C(=O)N1CCC[C@H]1B(O)O [compound 4535]	< 5.00	6.54			
